From patent US20100298302A1, “NOVEL PROTEIN KINASE MODULATORS” (priority 2009, published 2010)
Where two headings read alike, the source gives them in different places.

Legend:
[1] = tested on: MDA-MB231 human breast cancer cells; test: Alamar Blue cell proliferation assay, MDA-MB231; format: cell-based; details: MDA-MB-231, read-out: MDAMB231 IC50
Procedure: (§1) A representative cell-proliferation assay protocol using Alamar Blue dye (stored at 4° C., use 20 ul per well) is described hereafter.
(§2) a. Split and trypsinize cells.
(§3) b. Count cells using hemocytometer.
(§4) c. Plate 4,000-5,000 cells per well in 100 μl of medium and seed into a 96-well plate according to the following plate layout. Add cell culture medium only to wells B10 to B12. Wells B1 to B9 have cells but no compound added.
(§5) d. Add 100 μl of 2× drug dilution to each well in a concentration shown in the plate layout above. At the same time, add 100 μl of media into the control wells (wells B10 to B12). Total volume is 200 μl/well.
(§6) e. Incubate four (4) days at 37° C., 5% CO2 in a humidified incubator.
(§7) f. Add 20 μl Alamar Blue reagent to each well.
(§8) g. Incubate for four (4) hours at 37° C., 5% CO2 in a humidified incubator.
(§9) h. Record fluorescence at an excitation wavelength of 544 nm and emission wavelength of 590 nm using a microplate reader.
(§10) In the assays, cells are cultured with a test compound for approximately four days, the dye is then added to the cells and fluorescence of […] dye is detected after approximately four hours. Different types of cells can be utilized in the assays (e.g., HCT-116 human colorectal carcinoma cells, PC-3 human prostatic cancer cells, MDA-MB231 human breast cancer cells, K-562 human chronic myelogenous leukemia (CML) cells, MiaPaca human pancreatic carcinoma cells, MV-4 human acute myeloid leukemia cells, and BxPC3 human pancreatic adenocarcinoma cells).

[2] = tested on: PC-3 human prostatic cancer cells; test: Alamar Blue cell proliferation assay, PC3; format: cell-based
Procedure: as §1, §2, §3, §4, §5, §6, §7, §8, §9, §10

[3] = tested on: MiaPaca human pancreatic carcinoma cells; test: Alamar Blue cell proliferation assay, MiaPaCa; format: cell-based; details: MIA PaCa-2
Procedure: as §1, §2, §3, §4, §5, §6, §7, §8, §9, §10

[4] = target: recombinant PIM-1 (Homo sapiens, UniProt P11309); test: PIM-1 kinase assay; format: biochemical; details: for inhibition at 0.5 µM: 500 nM compound, read-out: PIM1: % inh 500 nM
Procedure: The following procedure was used to assay the PIM-1 kinase activity of compounds of the invention. Other methods for assaying PIM-1 and other PIM kinases, as well as methods to assay for activity against various kinases known in the art.
In a final reaction volume of 50 ul, recombinant PIM-1 (1 ng) was incubated with 12 mM MOPS pH 7.0, 0.4 mM EDTA, glycerol 1%, brij 35 0.002%, 2-mercaptoethanol 0.02%, BSA 0.2 mg/ml, 100 uM KKRNRTLTK, 10 mM MgAcetate, 15 uM ATP, [γ-^33P-ATP] (specific activity approx. 500 cpm/pmol), DMSO 4% and test inhibitor compound at the required concentration. The reaction was initiated by the addition of the Magnesium ATP mixture. After 40 min incubation at 23° C., the reactions were quenched by the addition of 100 ul 0.75% Phosphoric acid, and the labeled peptide collected by filtration through a phosphocellulose filter plate. The plate was washed 4 times with 0.075% phosphoric acid (100 ul per well) and then, after the addition of scintillation fluid (20 ul per well), the counts were measured by a scintillation counter.

[5] = tested on: MV-4-11; test: Alamar Blue cell proliferation assay, MV-4-11; format: cell-based; details: Homo sapiens, MV4-11
Procedure: as §1, §2, §3, §4, §5, §6, §7, §8, §9, §10

[6] = tested on: K-562 human chronic myelogenous leukemia (CML) cells; test: Alamar Blue cell proliferation assay, K-562; format: cell-based
Procedure: as §1, §2, §3, §4, §5, §6, §7, §8, §9, §10

[7] = tested on: SUM-149PT; test: Alamar Blue cell proliferation assay, SUM-149PT; format: cell-based; details: Homo sapiens, SUM149PT
Procedure: as §1, §2, §3, §4, §5, §6, §7, §8, §9, §10

[8] = tested on: MDA-MB45; test: Alamar Blue cell proliferation assay, MDA-MB45; format: cell-based
Procedure: as §1, §2, §3, §4, §5, §6, §7, §8, §9, §10

[9] = tested on: BxPC3 human pancreatic adenocarcinoma cells; test: Alamar Blue cell proliferation assay, BxPC3; format: cell-based; details: BXPC-3
Procedure: as §1, §2, §3, §4, §5, §6, §7, §8, §9, §10

[10] = target: recombinant human PIM2 (Homo sapiens, UniProt Q9P1W9); test: PIM-2 kinase assay; format: biochemical
Procedure: Test compounds dissolved and diluted in DMSO (2 μl) were added to a reaction mixture comprising 10 μl of 5× Reaction Buffer (40 mM MOPS pH 7.0, 5 mM EDTA), 10 μl of recombinant human PIM2 solution (4 ng PIM-2 dissolved in dilution buffer (20 mM MOPS pH 7.0; EDTA 1 mM; 5% Glycerol; 0.01% Brij 35; […]; […] 2-mercaptoethanol; 1 mg/ml BSA)) and 8 ul of water. Reactions were initiated by the addition of 10 ul of ATP Solution ([…] (15 mM MgCl2; 75 uM ATP) 1% ([γ-33P]ATP: Stock 1 mCi/100 μl; 3000 Ci/mmol (Perkin Elmer)) and 10 ul of substrate peptide solution (RSRSSYPAGT, dissolved in water at a concentration of 1 mM), Reactions were maintained for 10 min at 30° C. The reactions were quenched with 100 ul of 0.75% Phosphoric acid, then transferred to and filtered through a Phosphocellulose filter plate (Millipore, MSPH-N6B-50). After washing each well 4 times with 0.75% Phosphoric acid, scintillation fluid (20 uL) was added to each well and the residual radioactivity was measured using a Wallac luminescence counter.

[11] = target: T1, recombinant human CK2 (Homo sapiens, UniProt P68400); test: cell-free CK2 assay; format: biochemical
T1 construct: purchased Upstate
Procedure: Modulatory activity of compounds described herein was assessed in vitro in cell-free CK2 assays by the following method.
Test compounds in aqueous solution were added at a volume of 10 microliters, to a reaction mixture comprising 10 microliters Assay Dilution Buffer (ADB; 20 mM MOPS, pH 7.2, 25 mM beta-glycerolphosphate, 5 mM EGTA, 1 mM sodium orthovanadate and 1 mM dithiothreitol), 10 microliters of substrate peptide (RRRDDDSDDD, dissolved in ADB at a concentration of 1 mM), 10 microliters of recombinant human CK2 (25 ng dissolved in ADB; Upstate). Reactions were initiated by the addition of 10 microliters of ATP Solution (90% 75 mM MgCl2, 75 micromolar ATP dissolved in ADB; 10% [γ-^33P]ATP (stock 1 mCi/100 μl; 3000 Ci/mmol (Perkin Elmer) and maintained for 10 minutes at 30 degrees C. The reactions were quenched with 100 microliters of 0.75% phosphoric acid, then transferred to and filtered through a phosphocellulose filter plate (Millipore). After washing each well 5 times with 0.75% phosphoric acid, the plate was dried under vacuum for 5 min and, following the addition of 15 ul of scintilation fluid to each well, the residual radioactivity was measured using a Wallac luminescence counter.

[12] = 15 μM ATP, read-out: PIM1: IC50 (15 μM ATP)

Chain of recombinant human PIM2 (Q9P1W9 whole entry): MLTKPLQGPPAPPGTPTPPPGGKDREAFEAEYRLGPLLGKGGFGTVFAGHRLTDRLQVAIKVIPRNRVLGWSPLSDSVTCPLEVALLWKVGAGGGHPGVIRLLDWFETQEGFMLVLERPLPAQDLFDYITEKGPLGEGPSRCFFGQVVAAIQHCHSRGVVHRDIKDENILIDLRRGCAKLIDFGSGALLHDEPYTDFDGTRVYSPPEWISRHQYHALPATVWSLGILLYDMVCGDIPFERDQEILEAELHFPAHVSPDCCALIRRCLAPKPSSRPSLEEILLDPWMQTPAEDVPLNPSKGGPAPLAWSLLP
Chain of recombinant PIM-1 (P11309 whole entry): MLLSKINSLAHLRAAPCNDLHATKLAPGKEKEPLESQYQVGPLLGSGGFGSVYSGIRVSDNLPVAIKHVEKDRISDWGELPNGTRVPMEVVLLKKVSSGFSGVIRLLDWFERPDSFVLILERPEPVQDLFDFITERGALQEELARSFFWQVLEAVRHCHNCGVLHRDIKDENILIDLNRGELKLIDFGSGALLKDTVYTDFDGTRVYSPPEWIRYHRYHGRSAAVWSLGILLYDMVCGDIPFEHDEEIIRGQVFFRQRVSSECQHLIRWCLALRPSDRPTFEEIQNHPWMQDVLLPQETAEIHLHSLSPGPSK
T1 sequence (P68400 whole entry): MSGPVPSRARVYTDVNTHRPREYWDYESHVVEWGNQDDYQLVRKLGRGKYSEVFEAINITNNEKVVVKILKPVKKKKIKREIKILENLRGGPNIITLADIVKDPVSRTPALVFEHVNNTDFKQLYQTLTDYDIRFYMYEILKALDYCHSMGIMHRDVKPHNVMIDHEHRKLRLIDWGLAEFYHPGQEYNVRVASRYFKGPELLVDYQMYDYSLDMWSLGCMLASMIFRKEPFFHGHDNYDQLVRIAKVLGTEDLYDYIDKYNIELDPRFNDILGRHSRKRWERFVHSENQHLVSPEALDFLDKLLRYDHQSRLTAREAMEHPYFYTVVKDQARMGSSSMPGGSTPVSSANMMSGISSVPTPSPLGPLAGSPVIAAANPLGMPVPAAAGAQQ
T1 sequence (P67870 whole entry partner): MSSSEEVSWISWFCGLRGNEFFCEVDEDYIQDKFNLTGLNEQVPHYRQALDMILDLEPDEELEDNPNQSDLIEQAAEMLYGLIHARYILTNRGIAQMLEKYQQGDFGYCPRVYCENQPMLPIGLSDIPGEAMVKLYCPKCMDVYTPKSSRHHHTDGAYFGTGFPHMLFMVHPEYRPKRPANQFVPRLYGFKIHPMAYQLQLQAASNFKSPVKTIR

Compound | IC50 [1] | IC50 [2] | IC50 [3] | inhibition at 0.5 µM [4] | IC50 [4, 12] | IC50 ([5]; Table 4) | IC50 ([6]; K562, Table 4) | IC50 [7] | IC50 [8] | IC50 [9] | IC50 [10] | IC50 [11] | IC50 ([5]; Table 5) | IC50 ([6]; K562, Table 5) | IC50 ([4]; Table 5, read-out: PIM1 IC50)
O=C(O)c1ccc2c(c1)nc(Nc1ccc(F)c(Cl)c1)c1cccn12 | 12 µM | > 10 µM | > 10 µM | 91.4% | 0.071 µM | 6.91 µM | 10.7 µM |  |  |  |  |  |  |  | 
Fc1ccccc1Nc1nc2c(-c3nnc[nH]3)cccc2n2cncc12 |  |  |  |  |  |  |  | < 10 µM | < 5 µM | 15.1 µM | < 0.1 µM | < 0.1 µM | < 1 µM | < 10 µM | 
Oc1cccc(Nc2nc3c(-c4nnc[nH]4)cccc3n3cccc23)c1 |  |  |  |  |  |  |  | > 30 µM | 28 µM | ≥ 30 µM | < 0.1 µM | < 1 µM | < 5 µM | > 10 µM | < 0.1 µM
Fc1ccc(Nc2nc3cc(-c4nnn[nH]4)ccc3n3cccc23)cc1Cl | > 10 µM |  | > 10 µM | 50.5% | 0.504 µM | 1.21 µM | > 10 µM |  |  |  |  |  |  |  | 
Fc1ccc(Nc2nc3c(-c4nnc[nH]4)cccc3n3cccc23)c(F)c1 |  |  |  |  |  |  |  | 23.3 µM | 15.7 µM | 10.2 µM | < 0.1 µM | < 0.1 µM | < 5 µM | < 10 µM | < 0.1 µM
c1ccc(Nc2nc3c(-c4nnc[nH]4)cccc3n3cccc23)cc1 |  |  |  |  |  |  |  | > 30 µM | 15.1 µM | > 30 µM | < 0.1 µM | < 0.1 µM | < 5 µM | > 30 µM | < 0.1 µM
COc1cccc(Nc2nc3cc(C(=O)O)ccc3n3cccc23)c1 |  | > 10 µM | > 10 µM | 79% | 0.354 µM | > 10 µM | > 10 µM |  |  |  |  |  |  |  | 
FC(F)(F)c1cccc(Nc2nc3cc(-c4nnn[nH]4)ccc3n3cccc23)c1 |  | > 10 µM | > 10 µM | 45.2% |  | 6.58 µM | > 10 µM |  |  |  |  |  |  |  | 
Fc1ccccc1Nc1nc2c(-c3nnc[nH]3)cccc2n2cccc12 |  |  |  |  |  |  |  | 22.8 µM | 28.4 µM | > 30 µM | < 0.1 µM | < 0.1 µM | < 5 µM | < 10 µM | < 0.1 µM
O=C(O)c1ccc2c(c1)nc(NCCn1cccc1)c1cccn12 |  | > 10 µM | > 10 µM | 50.1% | 0.554 µM | > 10 µM | > 10 µM |  |  |  |  |  |  |  | 
CN(C)CCNc1nc2cc(C#N)ccc2n2cccc12 |  | 8.31 µM | 1.29 µM | 20.1% |  | 2.73 µM | 5.24 µM |  |  |  |  |  |  |  | 
N#Cc1ccc2c(c1)nc(NCCN1CCCC1)c1cccn12 |  | 9.65 µM | 1.24 µM | 10.3% |  | 3 µM | 5.52 µM |  |  |  |  |  |  |  | 
O=C(NC1CC1)c1cccc2c1nc(Nc1ccccc1F)c1cccn12 |  |  |  |  |  |  |  | < 10 µM | 12 µM | > 30 µM | < 1 µM | < 1 µM | < 10 µM | > 10 µM | < 0.1 µM
Clc1ccc(Nc2nc3cc(-c4nnn[nH]4)ccc3n3cccc23)cc1 | > 10 µM |  | > 10 µM | 57.1% | 0.576 µM | > 10 µM | > 10 µM |  |  |  |  |  |  |  | 
Clc1cccc(Nc2nc3c(-c4nnc[nH]4)cccc3n3cccc23)c1 |  |  |  |  |  |  |  | 21 µM | 16 µM | ≥ 30 µM | < 0.1 µM | < 0.1 µM | < 5 µM | > 10 µM | < 0.1 µM
CN(c1cccc(Cl)c1)c1nc2cc(C(=O)O)ccc2n2cccc12 |  | > 10 µM | > 10 µM | 49.7% |  | > 10 µM | > 10 µM |  |  |  |  |  |  |  | 
Clc1ccccc1Nc1nc2cc(-c3nnn[nH]3)ccc2n2cccc12 |  | > 10 µM | > 10 µM | 59.3% | 0.466 µM | > 10 µM | > 10 µM |  |  |  |  |  |  |  | 
